Columns and labels:
[1] = tested on: Alkaline phosphatase from bovine intestinal mucosa; experiment: Alkaline phosphatase activation of prodrugs (31P NMR); assay type: biochemical; conditions: in vitro, FIG. 5
Description: Alkaline phosphatase activation of prodrugs 3 and 19d. Alkaline phosphatase from bovine intestinal mucosa (Sigma-Aldrich, P5521-2KU) was dissolved in 2.0 mL of a 0.100 M sodium glycine buffer containing 1.0 mM ZnCl2 and 1.0 mM MgCl2. This stock solution was stored at 4° C. between uses.
Compound 19d (10.0 mg, 0.016 mmol) or compound 3 (8.7 mg, 0.016 mmol) were dissolved in 0.6 mL of a 0.100 M tris glycine buffer solution containing 1.0 mM ZnCl2 and 1.0 mM MgCl2. […] 50 μL of the previously prepared AP stock solution was further diluted by addition to 0.950 mL of a 0.100 M tris glycine buffer containing 1.0 mM ZnCl2 and 1.0 mM MgCl2. 10.0 μL of this diluted AP solution was added to the prodrug solution by syringe. A series of 42 inverse-gated decoupled ^31P NMR's were taken (24 scans each, approximately one minute acquisition time). Conversion (%) was determined from the relative integration of the starting material and product peaks, NMR time stamps were used to determine time. Each experiment was repeated three times.

Primary rat hepatocytes = experiment: Cell viability and apoptosis assays, TGF-β1-exposed hepatocytes; assay type: cell-based; conditions: 100 μM, with or without 3 U/ml alkaline phosphatase, TGF-β1 24 h
Description: Cell culture and treatments. Primary rat hepatocytes were isolated from male rats (100-150 g) by collagenase perfusion. Briefly, rats were anesthetized with phenobarbital sodium (100 mg/kg body weight) injected into the peritoneal cavity. After administration of heparin (200 units/kg body weight) in the tail vein, the animals' abdomen was opened and the portal vein exposed and cannulated. The liver was then perfused at 37° C. in situ with a calcium-free Hanks' Balanced Salt Solution (HBSS) for ˜10 min, and then with 0.05% collagenase type IV in calcium-present HBSS for another 10 min. […] Cell viability was determined by trypan blue exclusion and was typically 80-85%. […]
Cell viability assays. […] Finally, absorbance was measured at 490 nm, with 690 nm as reference, using a Bio-Rad model 680-microplate reader (Bio-Rad Laboratories, Hercules, Calif., USA).
To assess cellular viability, the CellTiter-Fluor™ viability assay was used (Promega Corp., Madison, Wis., USA). Briefly, viable cells are measured using a fluorogenic, cell-permeant, peptide substrate (Gly-Phe-AFC), which is cleaved by the live-cell protease activity to generate a fluorescent signal proportional to the number of living cells. Cells were incubated with an equal volume of CellTiter-Fluor™ Reagent for 30 min at 37° C. and resulting fluorescence (380-400 nmEx/505 nmEm) measured using a GloMax+ Multi Detection System (Promega Corp.). […]

SMILES: CC(CCC(=O)OCOP(=O)(O)O)C1CCC2C3C(O)CC4CC(O)CCC4(C)C3CCC12C (centres unmarked) [Compound 19, ursodeoxycholic acid phosphonooxymethoxy ester]
- rate of alkaline phosphatase catalyzed release of UDCA [1]: faster than prodrug 3
- anti-apoptotic potency in in vitro assays (Primary rat hepatocytes): highly active in these assays, but required activation by exogenous alkaline phosphatase
